# Tests used:
# [1] = tested on: P. aeruginosa ΔpvdFΔpchA with additional deletion of pfeA; assay: Growth kinetics, additional deletion of pfeA; format: cell-based, Pseudomonas aeruginosa; conditions: 10 μM, CAA medium, 30 °C, 48 h, three independent biological replicates
# [2] = tested on: P. aeruginosa ΔpvdFΔpchA strain; assay: Antimicrobial susceptibility assay; conditions: iron-restricted CAA medium, MIC assay, 24 and 48 h
# P. aeruginosa = assay: MIC assay in CAA medium supplemented with ferric iron; format: cell-based, Pseudomonas aeruginosa; conditions: CAA medium supplemented with ferric iron (100 μM)
compound,measurement,setting,value
"C#CCCCC(=O)Nc1c(CNC(=O)c2cccc(O)c2O)cc(CNC(=O)c2cccc(O)c2O)cc1CNC(=O)c1cccc(O)c1O [Compound 4, Alkyne-MECAM-OH]",growth in the strain lacking PfeA (OD 600 nm),[1],delayed growth slightly
CNC(C)C1CCC(N)C(OC2C(N)CC(N)C(OC3OCC(C)(O)C(NC)C3O)C2O)O1 (stereo not drawn) [Gentamicin],growth inhibition / antimicrobial activity (in words),[2],exhibited an activity in the expected range
"C#CCNC(=O)CN1CCN(CC(=O)NCCNC(=O)c2cccc(O)c2O)CCN(CC(=O)NCCNC(=O)c2cccc(O)c2O)CCN(CC(=O)NCCNC(=O)c2cccc(O)c2O)CC1 [Compound 2, Alkyne-DOTAM-OH]",antimicrobial effect in the presence of excess ferric iron,P. aeruginosa,lost their antimicrobial effect

# Source: paper PMC9841981 (Journal of Medicinal Chemistry, 2022)
